Structures can show the parent of a compound that is named as a salt.
Assays:
[1] = molecular target: T1, recombinant human Dopamine Subtype D2s receptors (Homo sapiens, UniProt P14416); assay: Dopamine D2 selectivity binding assay ([3H]-spiperone); details: inhibition of [3H]-spiperone (0.16 nM) binding; read-out: D2 bind pIC50 (converted)
T1 construct: purchased Perkin Elmer
Outline: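 Displacement of [3H]-spiperone (0.16 nM final) from human D2s receptor membranes in pH 7.4 HEPES buffer over 2 h at room temperature, then filtration and scintillation counting. Specific binding taken as vehicle minus 10 μM haloperidol wells. Potency given as pIC50 from a four-parameter logistic curve.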

Adrenergic β2 = molecular target: T2, Adrenergic β2 (Homo sapiens, UniProt P07550); assay: Adrenergic β2 mediated cAMP production in H292 cells; assay type: cell-based; details: for EC50: H292 cells, cAMP by AlphaScreen, 60 minutes at room temperature, rolipram 300 μM, read-out: β2 pEC50 (converted); for β2 Int Act: Intrinsic Activity as a fraction relative to the maximum activity determined for formoterol
T2 construct: Adherent H292 cells were removed from tissue culture flasks; endogenous in cells; host or cells: H292 cells
Outline: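 cAMP accumulation in adherent H292 cells, measured by AlphaScreen and calibrated with cAMP standards. Compounds incubated 60 min at room temperature after 10 min rolipram (final 300 μM; vehicle 1.6% DMSO). pEC50 and intrinsic activity, as a fraction of formoterol's maximum, from four-parameter logistic fit.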

T2 sequence (P07550 whole entry): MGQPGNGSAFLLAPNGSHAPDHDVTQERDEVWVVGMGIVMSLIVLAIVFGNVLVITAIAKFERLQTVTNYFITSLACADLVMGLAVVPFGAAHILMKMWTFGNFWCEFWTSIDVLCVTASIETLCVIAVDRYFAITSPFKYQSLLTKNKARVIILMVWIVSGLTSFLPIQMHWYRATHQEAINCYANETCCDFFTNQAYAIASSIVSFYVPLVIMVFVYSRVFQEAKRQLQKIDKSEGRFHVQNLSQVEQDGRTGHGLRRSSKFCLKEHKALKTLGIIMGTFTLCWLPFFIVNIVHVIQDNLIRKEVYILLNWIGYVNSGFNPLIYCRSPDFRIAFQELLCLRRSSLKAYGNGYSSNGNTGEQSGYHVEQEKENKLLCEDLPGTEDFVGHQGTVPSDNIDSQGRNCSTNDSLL
T1 sequence (P14416 1-414 isoform P14416-2): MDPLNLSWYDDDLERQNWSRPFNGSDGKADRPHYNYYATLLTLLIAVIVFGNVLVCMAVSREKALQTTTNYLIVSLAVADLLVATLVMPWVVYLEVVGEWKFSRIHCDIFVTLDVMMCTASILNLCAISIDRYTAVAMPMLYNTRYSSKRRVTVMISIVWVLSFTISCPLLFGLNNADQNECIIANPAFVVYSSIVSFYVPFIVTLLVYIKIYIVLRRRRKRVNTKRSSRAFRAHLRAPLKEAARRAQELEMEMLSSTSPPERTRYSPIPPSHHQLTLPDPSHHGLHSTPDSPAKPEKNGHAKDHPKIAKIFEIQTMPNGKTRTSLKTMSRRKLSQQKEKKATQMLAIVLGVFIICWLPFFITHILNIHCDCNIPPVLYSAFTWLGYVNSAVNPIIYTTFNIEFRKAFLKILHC

| Structure (SMILES) | IC50 [1] [nM] | EC50 (Adrenergic β2) [nM] | β2 Int Act (Adrenergic β2) |
| --- | --- | --- | --- |
| Cc1cccc(CCNCCC(=O)N(CCNCCc2ccc(O)c3[nH]c(=O)sc23)C2CCCCCC2)c1 [Example 85, N^1-Cycloheptyl-N^1-(2-{[2-(4-hydroxy-2-oxo-2,3-dihydro-1,3-benzothiazol-7-yl)ethyl]amino}ethyl)-N^3-[2-(3-methylphenyl)ethyl]-β-alaninamide bis-trifluoroacetic acid salt] | 79.4 | 6.31 | 0.65 |
| COc1ccc(CCNCCC(=O)N(CCNCCc2ccc(O)c3[nH]c(=O)sc23)C2CCCCCC2)cc1OC [Example 86, N^1-Cycloheptyl-N^3-[2-(3,4-dimethoxyphenyl)ethyl]-N^1-(2-{[2-(4-hydroxy-2-oxo-2,3-dihydro-1,3-benzothiazol-7-yl)ethyl]amino}ethyl)-β-alaninamide bis-trifluoroacetic acid salt] | 200 | 39.8 | 0.43 |
| O=C(CCNCCc1ccccc1)N(CCNCCc1ccc(O)c2[nH]c(=O)sc12)C1CCC(F)(F)CC1 [Example 4, N-(4,4-Difluorocyclohexyl)-N-(2-{[2-(4-hydroxy-2-oxo-2,3-dihydro-1,3-benzothiazol-7-yl)ethyl]amino}ethyl)-N^3-(2-phenylethyl)-β-alaninamide bis-trifluoroacetic acid salt] | 2000 | 1 | 0.79 |
| O=C(CCNCCc1ccccc1)N(CCNCCc1ccc(O)c2[nH]c(=O)sc12)C1CCCCC1 [Example 5, N-Cyclohexyl-N-(2-{[2-(4-hydroxy-2-oxo-2,3-dihydro-1,3-benzothiazol-7-yl)ethyl]amino}ethyl)-N^3-(2-phenylethyl)-β-alaninamide bis-trifluoroacetic acid salt] | 398 | 2.51 | 0.83 |

More lines, now with the values ahead:

| IC50 [1] [nM] | EC50 (Adrenergic β2) [nM] | β2 Int Act (Adrenergic β2) | Structure (SMILES) |
| --- | --- | --- | --- |
| 79.4 | 1.26 | 0.9 | O=C(CCNCCc1ccc(O)c(Cl)c1)N(CCNCCc1ccc(O)c2[nH]c(=O)sc12)C1CCCCC1 [Example 89, N^3-[2-(3-chloro-4-hydroxyphenyl)ethyl]-N^1-cyclohexyl-N^1-(2-{[2-(4-hydroxy-2-oxo-2,3-dihydro-1,3-benzothiazol-7-yl)ethyl]amino}ethyl)-β-alaninamide bis-trifluoroacetic acid salt] |
| 79.4 | 3.98 | 0.71 | O=C(CCNCCc1cccc(O)c1)N(CCNCCc1ccc(O)c2[nH]c(=O)sc12)C1CCCCCCC1 [Example 90, N^1-Cyclooctyl-N^1-(2-{[2-(4-hydroxy-2-oxo-2,3-dihydro-1,3-benzothiazol-7-yl)ethyl]amino}ethyl)-N^3-[2-(3-hydroxyphenyl)ethyl]-β-alaninamide bis-trifluoroacetic acid salt] |
| 39.8 | 3.98 | 0.75 | CC1(C)CCC(N(CCNCCc2ccc(O)c3[nH]c(=O)sc23)C(=O)CCNCCc2cccc(O)c2)CC1 [Example 91, N^1-(4,4-Dimethylcyclohexyl)-N^1-(2-{[2-(4-hydroxy-2-oxo-2,3-dihydro-1,3-benzothiazol-7-yl)ethyl]amino}ethyl)-N^3-[2-(3-hydroxyphenyl)ethyl]-β-alaninamide bis-trifluoroacetic acid salt] |
| 39.8 | 3.16 | 0.72 | O=C(CCNCCc1ccc(O)c2[nH]c(=O)sc12)N(CCNCCc1ccc(O)c2[nH]c(=O)sc12)C1CCCCCC1 [Example 87, bis-trifluoroacetic acid salt] |
| 79.4 | 25.1 | 0.37 | O=C(CCNCCc1ccc2c(c1)OCCO2)N(CCNCCc1ccc(O)c2[nH]c(=O)sc12)C1CCCCCC1 [Example 88, N-Cycloheptyl-N^3-[2-(2,3-dihydro-1,4-benzodioxin-6-yl)ethyl]-N^1-(2-{[2-(4-hydroxy-2-oxo-2,3-dihydro-1,3-benzothiazol-7-yl)ethyl]amino}ethyl)-β-alaninamide bis-trifluoroacetic acid salt] |

Source: US20100022491A1, “4-HYDROXY-2-OXO-2,3-DIHYDRO-1,3-BENZOTHIAZOL-7YL COMPOUNDS FOR MODULATION OF B2-ADRENORECEPTOR ACTIVITY” (ASTRAZENECA AB, priority 2006, published 2010)
